Assay results: patent US8691210B2, “Methods and compositions for generating an immune response by inducing CD40 and pattern recognition receptors and adaptors thereof” (priority 2006, dated 2014)

B1: CD40L: CD40 ligand (Alexis Biochemicals) (protein)
chain: GDQNPQIAAHVISEASSKTTSVLQWAEKGYYTMSNNLVTLENGKQLTVKRQGLYYIYAQVTFCSNREASSQAPFIASLCLKSPGRFERILLRAANTHSSAKPCGQQSIHLGGVFELQPGASVFVNVTDPSQVSHGTGFTSFGLLKL

Columns and labels:
[1] = test system: BMDCs; assay: In vitro serum-starvation DC survival assay (propidium iodide); type: cell-based, murine; settings: relative to non-transduced DCs treated with CD40L or untreated BMDCs
Source text: In addition to DC activation state, DC longevity is another critical variable that influences the generation of T cell-dependent immunity. In fact, CTL-mediated killing of DCs is considered to be a significant mechanism for modulating immune responses while protecting the host from autoimmune pathologies^55,56. Other work has established that CD40 stimulation of DCs prolongs their survival by a variety of mechanisms, including upregulation of the anti-apoptotic protein bcl-XL and the granzyme B inhibitor, Spi-6^57,58. The effects of iCD40 relative to CD40L on DC survival were compared in an in vitro serum-starvation culture assay (FIG. 11E).

[2] = test system: human DCs; assay: Cytokine (IL-12p70, IL-6) ELISA of human DC culture supernatants; type: cell-based; settings: iCD40-DCs stimulated with the named TLR ligand
Experimental: Approximately 2×10^6 cells/ml were cultured in a 24-well dish and transduced with adenoviruses at 10,000 viral particle (vp)/cell (−160 MOI) for 90 min at 37° C. and 5% CO2. Immediately after transduction DCs were stimulated with MPL, FSL-1, Pam3CSK4 (InvivoGen, San Diego, Calif.), LPS (Sigma-Aldrich, St. Louis, Mo.), AP20187 (kind gift from ARIAD Pharmaceuticals, Cambridge, Mass.) or maturation cocktail (MC), containing 10 ng/ml TNF-alpha, 10 ng/ml IL-1beta, 150 ng/ml IL-6 (R&D Systems, Minneapolis, Minn.) and 1 micrograms/ml of PGE2 (Cayman Chemicals, Ann Arbor, Mich.). In T cell assays DCs were pulsed with 50 micrograms/ml of PSMA or MAGE 3 peptide 24 hours before and after adenoviral transduction.
Cell surface staining was done with fluorochrome-conjugated monoclonal antibodies (BD Biosciences, San Diego, Calif.). Cells were analyzed on a FACSCalibur cytometer (BD Biosciences, San Jose, Calif.). Cytokines were measured in culture supernatants using enzyme-linked immunosorbent assay kits for human IL-6 and IL-12p70 (BD Biosciences).

[3] = test system: human SOCS1; assay: Real time Q-PCR assay for human SOCS1 in DCs; type: cell-based
Source text: Total RNA was purified and reverse transcribed with random hexamers using SuperScript II RTase (Invitrogen, Carlsbad, Calif.). mRNA levels were quantified in DCs by subjecting cDNA to TaqMan PCR analysis using the GeneAmp 5700 Sequence Detection System (Applied Biosystems, Foster City, Calif.). Pre-developed sequence detection reagents (Applied Biosystems) specific for human SOCS1 and 18S rRNA, including forward and reverse primers as well as a fluorogenic TaqMan FAM-labeled hybridization probe, were supplied as mixtures and were used at 1 microliter/20 microliter PCR. Samples were run in duplicates. The level of SOCS1 expression in each sample was normalized to the level of 18S rRNA from the same sample using the comparative 2-ΔΔCT method^21.

[4] = test system: primary bone marrow-derived DCs (BMDCs); assay: iCD40 functionality in primary BMDCs (surface markers, intracellular IL-12 staining); type: cell-based, murine; settings: stimulation with LPS and CD40L
Source text: A helper-dependent, […] adenoviral vector, named Ad-iCD40-GFP, was engineered to express both iCD40 and EGFP under the control of the CMV early/immediate promoter/enhancer. Ad-iCD40-GFP successfully transduced and expressed the iCD40 transgene, as well as the EGFP marker, in purified BMDCs (FIG. 11A,B). […] The effects of Ad-iCD40-GFP on BMDCs using intracellular cytokine staining to evaluate DC expression of the TH1-polarizing cytokine, IL-12 was then investigated. These findings confirmed numerous previous reports that an empty adenoviral vector can contribute to background fluorescence readings by stimulating the production of low levels of this cytokine. (FIG. 11D)^53. […] However, AP20187 exposure of these iCD40-expressing DCs managed to reproducibly overcome these cumulative effects to further increase the percentage of IL-12′ DCs.

[5] = test system: BMDCs; assay: BMDC survival (GM-CSF deprivation, wortmannin); type: cell-based
Experimental: To further test the hypothesis that PI3K and Akt are common regulators for innate and acquired immune signal-mediated DC survival, various concentrations (0.05-5 μM) of PI3K inhibitor, wortmannin, in BMDCs treated with LPS or anti-CD40 were tested.
To more directly investigate the role of Akt in PI3K-mediated DC survival, a previously described constitutively active Akt (M-Akt) allele, consisting of full length Akt, targeted to intracellular membranes with a myristoylation-targeting sequence from c-Src^62 was used. […] Therefore, to test the possibility that the efficient lipid raft localization of Akt improve its functions, this construct was compared with several distinct deregulated Akt alleles, containing myristoylation-targeting sequences from Src family kinases Src, Fyn and Lck fused to AAkt. The pleckstrin homology (PH) domain (residues 1-102) was removed to further improve Akt activity when PI3K is limiting^64. […] Therefore, MF-ΔAkt was used in subsequent experiments. Moreover, for improved expression in BMDCs, replication-defective adenovirus, Ad-MF-ΔAkt, expressing functionally optimized Akt was generated. Consistently, Ad-MF-ΔAkt led to higher GSK3α/β phosphorylation in BMDCs, compared with Ad-M-Akt^62. […] Thus, functionally optimized Akt almost completely suppresses induction of DC death by PI3K (but not Src) inhibition. […]

[6] = test system: Naive CD4+CD45RA+ T cells; assay: Polarization of naive T helper cells; type: cell-based, human; settings: tetanus toxoid-pulsed DCs, restimulation with TTp30
Source text: Naïve CD4+CD45RA+ T-cells from HLA-DR11.5-positive donors (genotyped using FASTYPE HLA-DNA SSP typing kit; BioSynthesis, Lewisville, Tex.) were isolated by negative selection using naïve CD4+ T cell isolation kit (Miltenyi Biotec, Auburn, Calif.). T cells were stimulated with autologous DCs pulsed with tetanus toxoid (5 FU/ml) and stimulated with various stimuli at a stimulator to responder ratio of 1:10. After 7 days, T cells were restimulated with autologous DCs pulsed with the HLA-DR11.5-restricted helper peptide TTp30 and transduced with adenovector Ad-iCD40. Cells were stained with PE-anti-CD4 Ab (BD Biosciences), fixed and permeabilized using BD Cytofix/Cytoperm kit (BD Biosciences), then stained with hIFN-gamma mAb (eBioscience, San Diego, Calif.) and analyzed by flow cytometry. Supernatants were analyzed using human TH1/TH2 BD Cytometric Bead Array Flex Set on BD FACSArray Bioanalyzer (BD Biosciences).

Molecule | IL12-p70 induced by TLR ligand in iCD40-DCs [2] | Time of peak IL-12p70/p40 synthesis [4] | further results
CC[C@H](C(=O)N1CCCC[C@H]1C(=O)O[C@H](CCc1ccc(OC)c(OC)c1)c1cccc(OCC(=O)NCC(CNC(=O)COc2cccc([C@@H](CCc3ccc(OC)c(OC)c3)OC(=O)[C@@H]3CCCCN3C(=O)[C@@H](CC)c3cc(OC)c(OC)c(OC)c3)c2)CN(C)C)c1)c1cc(OC)c(OC)c(OC)c1 [AP20187] | – | – | DC longevity [1]: even further enhanced this survival effect
Lipopolysaccharide [LPS] | synergized with CD40 signaling | 8 h | SOCS1 induction [3]: up-regulated SOCS1 expression; Protection against GM-CSF deprivation-mediated DC death [5]: protect against GM-CSF deprivation-mediated DC death
FSL-1 | only low levels | – | –
Pam3 CSK4 | only low levels | – | –
monophosphoryl lipid A [MPL] | synergized with CD40 signaling | – | IFN-gamma production in CD4+ T cells [6]: not induced
B1 | – | 8 h | –
